Data on one compound can be found in patent publication US6852863B2, “Metabolites of (3-{[4-tert-butyl-benzyl)-(pyridine-3-sulfonyl)-amino]-methyl}-phenoxy)-acetic acid” (Pfizer Inc., priority 2002, dated 2005).

Common to all, as to assay type: in vitro ADME
The nature of series [1]: Metabolism of 14C-parent in monkey liver microsomes. The conditions noted are these: 20 μM 14C-parent, NADPH, 30 minutes, 37° C.; HPLC radiochromatogram peak. As to the method:
(§1) Human (HL-mix 12), rat, monkey and dog liver microsomes were prepared by differential centrifugation using standard procedures. Prior to use, liver microsomes were thawed on ice and reconstituted using 100 mM potassium phosphate pH 7.4. [^14C]-(3-{[4-tert-butyl-benzyl)-(pyridine-3-sulfonyl)-amino]-methyl}-phenoxy)-acetic acid was dissolved 100 mM potassium phosphate pH 7.4 at a final substrate concentration of 20 μM. Samples were pre-incubated for 3 min with microsomes (CYP 450; 0.5 μM) at 37° C. in a shaking water bath. Incubations were initiated with the addition of 100 μl cofactor (1.1 mM NADPH, 10 mM MgCl2) per 1 ml of incubation mixture. Incubations were stopped after 30 minutes by the addition of an equal volume of cold acetonitrile.
(§2) Metabolite quantification was performed by measuring the areas of individually separated HPLC peaks using the β-RAM (IN/US, Win-flow). […]
(§3) Identification of the metabolites was performed using a Finnigan TSQ 7000 triple quadrupole mass spectrometer equipped with an API-2 electrospray interface. […] The β-RAM response was recorded as a real time analog signal by the MS data collection system. The collected data from the radioactivity and MS detectors were separated by the dwell volume of flow from the MS to the radioactivity detector (corresponding to a dwell time of about 0.2 min.). […]

Series [2] in a line: Metabolism of 14C-parent in human liver microsomes. The conditions noted are these: 20 μM 14C-parent, NADPH, 30 minutes, 37° C.; HPLC radiochromatogram peak. The method, then: as §1, §2, §3
A further series concerns Human hepatocytes. The series can be described thus: Metabolism of parent in human hepatocytes. The conditions noted are these: 20 μM parent, 2 million cells per ml, 4 hours, 37° C.; mobile phase pH 5.0. The method, then: Human hepatocytes were generated from a mix of 3 livers. Rat and monkey hepatocytes were generated using Sprague Dawley rats (12 livers), Cynomolgus monkey (1 liver) and Beagle dogs (2 livers). Cryopreserved hepatocytes were suspended in William's E media with 10% FBS to a viable count of 2 million cells per ml and gassed with 95/5 O2/CO2 initially and every hour of incubations. After the addition of 20 μM (3-{[4-tert-butyl-benzyl)-(pyridine-3-sulfonyl)-amino]-methyl}-phenoxy)-acetic acid to a 25 ml Erlenmeyer flask, 2.5 ml of hepatocytes suspension was added and incubated for 4 hours at 37° C. in a shaking water bath.
Metabolite quantification was performed by measuring the areas of individually separated HPLC peaks using the β-RAM (IN/US, Win-flow). The β-RAM provided integrated peak representation printouts in CPM as well as the percentage of the radiolabeled material. The β-RAM was operated using a solid scintillation cell. […]
as §3

Turning to `CC(C)(CO)c1ccc(CN(Cc2cccc(OCC(=O)O)c2)S(=O)(=O)c2cccnc2)cc1` [Metabolite M4, (3-{[[4-(2-hydroxy-1,1-dimethyl-ethyl)-benzyl]-(pyridine-3-sulfonyl)-amino]-methyl}-phenoxy)-acetic acid], the “Percent of Radioactivity, Monkey liver microsomes” value in series [1] amounted to 47.3%. Besides, in series [2], the “Percent of Radioactivity, Human liver microsomes” value is reported as 26.5%. In addition, the “Percent of Radioactivity, Human hepatocytes” value in the series with Human hepatocytes stood at 41.2%.
